Laboratory results from ChEMBL document CHEMBL4602719, “Discovery of Potent, Selective, and Orally Bioavailable Inhibitors of USP7 with In Vivo Antitumor Activity” (J Med Chem, 2020).

Experiments:
[1] = biological target: T1, Ubiquitin carboxyl-terminal hydrolase 7 (Homo sapiens, UniProt Q93009); test: Inhibition of USP7 in human RKO cells transfected with p53 luciferase reporter vector assessed as increase in p53-dependent luciferase activity measured after 18 hrs by BrightGlo luciferase assay; format: cell-based
T1 sequence (Q93009 whole entry): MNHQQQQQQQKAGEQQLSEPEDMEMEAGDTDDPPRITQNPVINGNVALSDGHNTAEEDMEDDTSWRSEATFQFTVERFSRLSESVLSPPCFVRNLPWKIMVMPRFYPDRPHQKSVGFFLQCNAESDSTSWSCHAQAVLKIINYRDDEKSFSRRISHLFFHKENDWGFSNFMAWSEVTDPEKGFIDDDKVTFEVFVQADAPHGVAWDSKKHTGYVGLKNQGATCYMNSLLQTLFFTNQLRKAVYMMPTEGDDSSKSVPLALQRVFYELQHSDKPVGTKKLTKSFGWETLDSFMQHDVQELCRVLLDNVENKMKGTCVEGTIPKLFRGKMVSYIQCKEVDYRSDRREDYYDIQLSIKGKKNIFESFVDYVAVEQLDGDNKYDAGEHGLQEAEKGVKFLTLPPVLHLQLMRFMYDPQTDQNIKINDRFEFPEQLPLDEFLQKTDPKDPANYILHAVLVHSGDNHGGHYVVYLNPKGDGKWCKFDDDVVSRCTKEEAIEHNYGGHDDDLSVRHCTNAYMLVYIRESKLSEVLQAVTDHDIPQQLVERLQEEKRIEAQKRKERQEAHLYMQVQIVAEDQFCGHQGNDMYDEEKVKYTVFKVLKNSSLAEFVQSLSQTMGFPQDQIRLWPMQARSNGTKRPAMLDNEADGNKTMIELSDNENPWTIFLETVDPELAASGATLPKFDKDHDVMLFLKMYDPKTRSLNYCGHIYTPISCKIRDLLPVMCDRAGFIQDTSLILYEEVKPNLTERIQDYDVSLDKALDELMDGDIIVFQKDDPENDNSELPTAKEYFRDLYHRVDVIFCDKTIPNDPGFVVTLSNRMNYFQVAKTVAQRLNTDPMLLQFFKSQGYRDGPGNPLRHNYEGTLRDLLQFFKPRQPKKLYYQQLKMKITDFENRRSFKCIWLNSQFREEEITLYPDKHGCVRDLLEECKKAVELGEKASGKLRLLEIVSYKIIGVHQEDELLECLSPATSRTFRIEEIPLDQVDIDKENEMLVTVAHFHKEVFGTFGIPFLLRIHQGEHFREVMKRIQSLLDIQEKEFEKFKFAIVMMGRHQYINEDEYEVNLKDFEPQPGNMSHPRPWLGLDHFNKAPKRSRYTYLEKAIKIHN

[2] = biological target: T1, Ubiquitin carboxyl-terminal hydrolase 7; test: Inhibition of recombinant full length USP7 (unknown origin) using ubiquintin-rhodamine as substrate preincubated for 30 mins followed by substrate addition measured after 1 hr by fluorescence-based Envision plate reader assay
[3] = Clearance in Sprague-Dawley rat at 0.5 mg/kg, iv; format: ADME, organism-based; conditions: in vivo
[4] = AUC in Sprague-Dawley rat at 2 mg/kg, po; format: ADME, organism-based; conditions: in vivo
[5] = Stability of compound in rat hepatocytes assessed as parent compound remaining incubated for 60 mins; format: ADME, cell-based, Hepatocyte; conditions: read-out: Stability
[6] = Stability of compound in human hepatocytes assessed as parent compound remaining incubated for 60 mins; format: ADME, cell-based, Hepatocyte; conditions: read-out: Stability
[7] = biological target: T2, Ubiquitin carboxyl-terminal hydrolase 47 (Homo sapiens, UniProt Q96K76); test: Inhibition of USP47 (unknown origin) by biochemical assay
T2 sequence (Q96K76 whole entry): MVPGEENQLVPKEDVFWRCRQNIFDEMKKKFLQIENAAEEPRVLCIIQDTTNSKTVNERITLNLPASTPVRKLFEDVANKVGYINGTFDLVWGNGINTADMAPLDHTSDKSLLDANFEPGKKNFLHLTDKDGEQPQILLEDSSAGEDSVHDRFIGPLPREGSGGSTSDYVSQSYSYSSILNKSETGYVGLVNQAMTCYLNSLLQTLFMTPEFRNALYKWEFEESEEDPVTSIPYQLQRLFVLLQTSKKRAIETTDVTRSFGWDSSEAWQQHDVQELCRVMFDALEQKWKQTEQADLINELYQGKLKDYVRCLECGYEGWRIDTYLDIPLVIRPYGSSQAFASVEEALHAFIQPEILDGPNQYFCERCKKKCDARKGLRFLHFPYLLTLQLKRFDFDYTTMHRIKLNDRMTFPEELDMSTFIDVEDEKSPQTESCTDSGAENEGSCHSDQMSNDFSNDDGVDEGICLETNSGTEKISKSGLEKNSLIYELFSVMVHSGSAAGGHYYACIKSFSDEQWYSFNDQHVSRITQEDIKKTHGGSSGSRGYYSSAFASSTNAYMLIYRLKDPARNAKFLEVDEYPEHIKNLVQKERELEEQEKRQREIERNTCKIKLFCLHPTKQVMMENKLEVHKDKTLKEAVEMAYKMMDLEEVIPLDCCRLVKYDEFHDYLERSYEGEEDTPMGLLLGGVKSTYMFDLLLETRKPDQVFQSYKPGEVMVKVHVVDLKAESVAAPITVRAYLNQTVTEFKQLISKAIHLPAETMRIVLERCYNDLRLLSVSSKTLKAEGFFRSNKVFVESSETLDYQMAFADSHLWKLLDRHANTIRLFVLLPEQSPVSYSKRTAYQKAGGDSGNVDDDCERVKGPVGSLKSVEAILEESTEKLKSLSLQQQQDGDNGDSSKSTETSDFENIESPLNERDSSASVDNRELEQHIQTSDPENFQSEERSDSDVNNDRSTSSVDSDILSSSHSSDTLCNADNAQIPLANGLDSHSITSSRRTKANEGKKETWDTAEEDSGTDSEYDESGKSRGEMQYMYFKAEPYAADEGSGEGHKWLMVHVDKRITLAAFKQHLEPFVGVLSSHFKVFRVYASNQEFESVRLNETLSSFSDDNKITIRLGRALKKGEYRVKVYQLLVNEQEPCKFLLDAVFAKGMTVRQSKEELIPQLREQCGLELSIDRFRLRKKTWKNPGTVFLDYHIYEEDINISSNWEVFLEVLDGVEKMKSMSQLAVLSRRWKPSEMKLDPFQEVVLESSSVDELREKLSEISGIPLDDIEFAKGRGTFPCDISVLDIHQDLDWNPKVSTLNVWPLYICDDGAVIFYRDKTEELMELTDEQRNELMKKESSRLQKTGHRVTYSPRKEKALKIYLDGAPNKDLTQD

[8] = biological target: T3, Ubiquitin carboxyl-terminal hydrolase 1 (Homo sapiens, UniProt O94782); test: Inhibition of His6-tagged human USP1 expressed in insect Sf21 cells coexpressing untagged UAF1 assessed as cleavage of Ubiquitin-Rhodamine110-glycine to Ubiquitin and Rhodamine110-glycine using Ubiquitin-Rhodamine110-glycine as substrate by fluorescence based analysis
T3 sequence (O94782 whole entry): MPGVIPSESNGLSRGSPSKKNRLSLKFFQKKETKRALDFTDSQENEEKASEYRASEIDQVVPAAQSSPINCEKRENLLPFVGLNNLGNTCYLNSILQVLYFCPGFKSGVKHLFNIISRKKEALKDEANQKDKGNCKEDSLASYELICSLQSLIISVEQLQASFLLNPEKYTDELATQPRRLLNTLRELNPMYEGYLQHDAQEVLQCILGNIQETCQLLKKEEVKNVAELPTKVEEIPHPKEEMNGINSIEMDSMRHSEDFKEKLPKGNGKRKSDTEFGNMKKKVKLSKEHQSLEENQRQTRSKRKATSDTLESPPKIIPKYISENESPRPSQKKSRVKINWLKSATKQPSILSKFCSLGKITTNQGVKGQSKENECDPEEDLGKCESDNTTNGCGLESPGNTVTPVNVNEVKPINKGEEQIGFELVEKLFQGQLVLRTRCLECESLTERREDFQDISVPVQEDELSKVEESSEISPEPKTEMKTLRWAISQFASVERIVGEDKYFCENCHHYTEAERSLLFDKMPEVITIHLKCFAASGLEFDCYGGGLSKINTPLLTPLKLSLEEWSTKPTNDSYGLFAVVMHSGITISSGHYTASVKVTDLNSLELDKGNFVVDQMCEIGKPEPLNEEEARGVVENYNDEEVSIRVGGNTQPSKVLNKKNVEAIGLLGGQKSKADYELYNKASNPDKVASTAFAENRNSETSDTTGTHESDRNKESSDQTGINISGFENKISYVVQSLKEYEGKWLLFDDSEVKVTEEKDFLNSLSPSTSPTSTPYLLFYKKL

[9] = test system: MM1.S; test: Cytotoxicity against human MM1S cells expressing wild type p53 assessed as reduction in cell viability measured after 5 days by CellTiter-Glo assay; format: functional; conditions: 120 h
[10] = biological target: Voltage-gated inwardly rectifying potassium channel KCNH2 (Homo sapiens, UniProt Q12809); test: Inhibition of human ERG
Sequence of Voltage-gated inwardly rectifying potassium channel KCNH2 (Q12809 whole entry): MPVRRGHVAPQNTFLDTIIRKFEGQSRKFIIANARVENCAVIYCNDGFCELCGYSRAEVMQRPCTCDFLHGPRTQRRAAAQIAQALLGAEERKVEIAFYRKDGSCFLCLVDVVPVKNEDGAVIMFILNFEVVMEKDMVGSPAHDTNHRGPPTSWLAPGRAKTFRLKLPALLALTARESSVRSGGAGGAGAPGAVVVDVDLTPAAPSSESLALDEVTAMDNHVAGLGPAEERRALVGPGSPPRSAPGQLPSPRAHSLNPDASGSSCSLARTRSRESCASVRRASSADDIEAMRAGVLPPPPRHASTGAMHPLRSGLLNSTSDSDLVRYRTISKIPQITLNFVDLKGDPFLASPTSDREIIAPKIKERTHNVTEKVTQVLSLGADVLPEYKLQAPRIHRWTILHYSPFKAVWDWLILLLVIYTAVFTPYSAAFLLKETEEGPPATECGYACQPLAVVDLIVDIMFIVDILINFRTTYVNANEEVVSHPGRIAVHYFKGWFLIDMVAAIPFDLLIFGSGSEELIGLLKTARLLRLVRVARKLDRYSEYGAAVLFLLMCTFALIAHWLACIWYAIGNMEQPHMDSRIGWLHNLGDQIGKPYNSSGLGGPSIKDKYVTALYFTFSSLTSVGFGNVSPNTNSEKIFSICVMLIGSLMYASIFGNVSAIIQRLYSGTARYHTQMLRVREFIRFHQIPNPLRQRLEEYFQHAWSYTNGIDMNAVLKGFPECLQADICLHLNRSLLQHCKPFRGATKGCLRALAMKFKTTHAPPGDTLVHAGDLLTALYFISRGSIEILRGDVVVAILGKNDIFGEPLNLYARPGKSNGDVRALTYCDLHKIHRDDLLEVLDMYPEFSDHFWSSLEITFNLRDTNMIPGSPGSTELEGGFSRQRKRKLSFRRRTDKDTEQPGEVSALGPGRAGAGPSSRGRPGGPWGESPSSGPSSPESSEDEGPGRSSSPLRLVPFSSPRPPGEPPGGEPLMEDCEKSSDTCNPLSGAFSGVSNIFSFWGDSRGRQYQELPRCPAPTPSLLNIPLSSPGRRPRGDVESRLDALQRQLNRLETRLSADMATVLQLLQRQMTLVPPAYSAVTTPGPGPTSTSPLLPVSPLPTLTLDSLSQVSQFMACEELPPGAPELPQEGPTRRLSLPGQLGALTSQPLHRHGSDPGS

[11] = test system: NCI-H526; test: Cytotoxicity against human NCI-H526 cells expressing p53 mutant assessed as reduction in cell viability measured after 5 days by CellTiter-Glo assay; format: functional; conditions: NCI-H526, 120 h

EC50 [1] [nM] | IC50 [2] [nM] | IC50 [7] [nM] | Structure (SMILES) | also measured
400 | 8 | – | Cc1cc(Cl)cc(-c2ccnc3cc(CN4C(=O)CCC4=O)sc23)c1OC1CCNCC1 | clearance [3]: 5.5 mL/min/kg; AUC [4]: 44 ng·h/mL
– | 0.38 | – | O=C1CCC(=O)N1Cc1cc2nccc(-c3cc(Cl)cc4c3O[C@@H](c3onc5c3CNCC5)C4)c2s1 | remaining at 1 h [5]: 4%; clearance [3]: 96.7 mL/min/kg; remaining at 1 h [6]: 26%
– | 930 | > 80000 | O=C(C1Cc2cc(Cl)cc(-c3ccnc4[nH]ccc34)c2O1)N1CCNCC1 (racemic) | IC50 [8]: > 80000 nM
42 | 0.26 | – | Cc1cc(Cl)cc(-c2ccnc3cc(Cn4c(=O)ccn(CC(F)(F)F)c4=O)sc23)c1O[C@@H]1CCNC[C@@H]1C | clearance [3]: 16.7 mL/min/kg; AUC [4]: 52 ng·h/mL
180 | 4.6 | – | Cc1cc(Cl)cc(-c2ccnc3cc(CN4C(=O)CCC4=O)sc23)c1O[C@H]1CCCNC1 | clearance [3]: 81.7 mL/min/kg; AUC [4]: 170 ng·h/mL
60 | 0.39 | – | Cc1cc(Cl)cc(-c2ccnc3cc(CN4C(=O)C5CC5C4=O)sc23)c1C[C@@H]1CNC[C@@H](C)O1 (mixture of isomers) | CC50 [9]: 120 nM
– | 1.1 | – | Cn1nc2c(c1[C@H]1Cc3cc(Cl)cc(-c4ccnc5cc(CN6C(=O)CCC6=O)sc45)c3O1)CNCC2 | remaining at 1 h [5]: 42%; clearance [3]: 78.3 mL/min/kg; remaining at 1 h [6]: 63%
– | 43 | > 40000 | O=C([C@H]1Cc2cc(Cl)cc(-c3ccnc4cc(CO)sc34)c2O1)N1CCNCC1 | IC50 [8]: > 40000 nM
150 | 2.1 | – | Cc1cc(Cl)cc(-c2ccnc3cc(CN4C(=O)CCC4=O)sc23)c1O[C@@H]1CCNC[C@@H]1C | clearance [3]: 1.17 mL/min/kg; AUC [4]: 860 ng·h/mL
130 | 1.3 | – | Cc1cc(Cl)cc(-c2ccnc3cc(CN4C(=O)C5C(C4=O)C5(C)C)sc23)c1CC1CCCNC1 (centres undefined) | –
– | 13 | – | O=C1CCC(=O)N1Cc1cc2nccc(-c3cc(Cl)cc4c3O[C@@H](c3ocnc3CN3CCC3)C4)c2s1 | remaining at 1 h [5]: 2%; remaining at 1 h [6]: 14%
250 | 2.4 | – | Cc1cc(Cl)cc(-c2ccnc3cc(CN4C(=O)C5C(C4=O)C5(C)C)sc23)c1OC1CCCNC1 (centres undefined) | –
– | 9 | > 40000 | O=C([C@H]1Cc2cc(Cl)cc(-c3ccnc4cc(C(O)(CO)CCl)sc34)c2O1)N1CCNCC1 (some centres undefined) | –
– | 73 | > 40000 | O=C([C@H]1Cc2cc(Cl)cc(-c3ccnc4cc(C5(O)COC5)sc34)c2O1)N1CCNCC1 | –
– | 0.18 | > 2000 | O=C([C@H]1Cc2cc(Cl)cc(-c3ccnc4cc(CN5C(=O)CCC5=O)sc34)c2O1)N1CCNCC1 | remaining at 1 h [5]: 14%; clearance [3]: 192 mL/min/kg; remaining at 1 h [6]: 37%
1200 | 32 | – | Cc1cc(Cl)cc(-c2ccnc3cc(CN4C(=O)CCC4=O)sc23)c1CN1CCNCC1 | –
35 | 0.16 | – | Cc1cc(Cl)cc(-c2ccnc3cc(CN4C(=O)C5CC5C4=O)sc23)c1C[C@@H]1CNCCO1 (some centres undefined) | IC50 [10]: 8000 nM; CC50 [9]: 210 nM; CC50 [11]: 3600 nM
– | 26 | > 20000 | O=C1CCCN1Cc1cc2nccc(-c3cc(Cl)cc4c3O[C@@H](C(=O)N3CCNCC3)C4)c2s1 | –

Further lines, the compound ahead of its results:

Structure (SMILES) | EC50 [1] [nM] | IC50 [2] [nM] | IC50 [7] [nM] | also measured
CC(=O)NCc1cc2nccc(-c3cc(Cl)cc4c3O[C@@H](C(=O)N3CCNCC3)C4)c2s1 | – | 25 | > 80000 | –
O=C1CCC(=O)N1Cc1cc2nccc(-c3cc(Cl)ccc3O[C@@H]3CNC[C@@H]3F)c2s1 | – | 207 | – | –
Cc1cc(Cl)cc(-c2ccnc3cc(CN4C(=O)CCC4=O)sc23)c1OCC1(F)CNC1 | 320 | 1.5 | – | –
O=C([C@H]1Cc2cc(Cl)cc(-c3ccnc4ccsc34)c2O1)N1CCNCC1 | – | 90 | > 40000 | IC50 [8]: > 40000 nM
Cc1cc(Cl)cc(-c2ccnc3cc(CN4C(=O)CCC4=O)sc23)c1CN1CCNC[C@@H]1C | 280 | 6.6 | – | –
O=C([C@H]1Cc2cc(Cl)cc(-c3ccnc4[nH]ccc34)c2O1)N1CCNCC1 | – | 450 | > 80000 | IC50 [8]: > 80000 nM
Cc1cc(Cl)cc(-c2ccnc3cc(CN4C(=O)CCC4=O)sc23)c1O[C@@H]1CNC[C@@H]1F | 560 | 1.2 | – | clearance [3]: 35 mL/min/kg; AUC [4]: 130 ng·h/mL
Cc1cc2nccc(-c3cc(Cl)cc4c3O[C@@H](C(=O)N3CCNCC3)C4)c2s1 | – | 130 | > 80000 | IC50 [8]: > 80000 nM
O=C([C@H]1Cc2cc(Cl)cc(-c3ccnc4cc(Cn5cnccc5=O)sc34)c2O1)N1CCNCC1 | – | 27 | > 5000 | –
Cc1cc(Cl)cc(-c2ccnc3cc(CN4C(=O)C5C(C4=O)C5(C)C)sc23)c1NC1CCCNC1 (centres undefined) | 33 | 0.78 | – | –
Cc1cc(Cl)cc(-c2ccnc3cc(CN4C(=O)CCC4=O)sc23)c1O[C@H]1C[C@H](N)C1 | 150 | 3.4 | – | –
Cc1cc(Cl)cc(-c2ccnc3cc(CN4C(=O)C5CC5C4=O)sc23)c1C[C@H]1OCCN[C@@H]1C (mixture of isomers) | 210 | 1.5 | – | CC50 [9]: 310 nM
Cc1cc(Cl)cc(-c2ccnc3cc(CN4C(=O)C5CC5C4=O)sc23)c1O[C@@H]1CCNC[C@@H]1C (some centres undefined) | 170 | 1.1 | – | –
Cc1cc(Cl)cc(-c2ccnc3cc(CN4C(=O)CCC4=O)sc23)c1CN1[C@@H](C)CNC[C@@H]1C | 60 | 0.32 | – | IC50 [10]: 2700 nM; CC50 [9]: 135 nM; CC50 [11]: 2200 nM
